The values below come from article PMC8536679, “A small molecule produced by Lactobacillus species blocks Candida albicans filamentation by inhibiting a DYRK1-family kinase” (Nature Communications, 2021).

The assay deals with T1, Yak1 (Candida albicans, UniProt A0A1D8PH81).
T1 construct: full-length, C-terminal 6xHis-3xFlag tag kept; both YAK1 alleles tagged and overexpressed in C. albicans; native purification on anti-Flag gel, eluted with 3xFlag peptide
Description: ADP-Glo kinase assay with DYRKtide. In kind it is biochemical. The note with it: 10 µM ATP, 0.2 mg/mL DYRKtide, 2.5 mM MgCl2, HEPES-NaOH pH 7.2, 40 min; ATP site proposed by docking only. (In general: In ADP-Glo the light output rises with the ADP produced.)

T1 sequence (A0A1D8PH81 entry or part of it): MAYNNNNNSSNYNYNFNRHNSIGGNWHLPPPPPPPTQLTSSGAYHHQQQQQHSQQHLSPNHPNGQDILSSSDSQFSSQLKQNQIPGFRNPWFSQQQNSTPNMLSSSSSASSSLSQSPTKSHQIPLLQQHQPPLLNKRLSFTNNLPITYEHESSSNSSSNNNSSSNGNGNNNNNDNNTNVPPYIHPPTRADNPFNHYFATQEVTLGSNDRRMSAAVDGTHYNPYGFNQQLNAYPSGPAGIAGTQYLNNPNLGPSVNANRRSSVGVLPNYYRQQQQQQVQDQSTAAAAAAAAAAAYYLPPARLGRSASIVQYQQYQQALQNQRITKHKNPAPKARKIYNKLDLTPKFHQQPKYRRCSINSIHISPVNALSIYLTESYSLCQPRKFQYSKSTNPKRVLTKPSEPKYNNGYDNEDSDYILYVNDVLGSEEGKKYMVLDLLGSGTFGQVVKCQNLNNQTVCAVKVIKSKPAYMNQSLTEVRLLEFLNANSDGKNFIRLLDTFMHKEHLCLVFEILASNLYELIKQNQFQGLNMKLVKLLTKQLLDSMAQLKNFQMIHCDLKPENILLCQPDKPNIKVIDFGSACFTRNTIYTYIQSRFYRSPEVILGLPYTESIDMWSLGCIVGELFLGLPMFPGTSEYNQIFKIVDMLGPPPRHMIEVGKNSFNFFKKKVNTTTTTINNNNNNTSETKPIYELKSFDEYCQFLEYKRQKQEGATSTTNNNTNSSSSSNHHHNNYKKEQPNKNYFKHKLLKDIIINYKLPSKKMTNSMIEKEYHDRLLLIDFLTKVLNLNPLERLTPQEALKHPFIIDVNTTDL

`CCOC(=O)c1nccc2c1[nH]c1ccccc12` [1-ECBC, 1-ethoxycarbonyl-β-carboline]: the concentration-dependent inhibition was 1-ECBC and harmine, a known β-carboline scaffold DYRK inhibitor, exhibited concentration-dependent inhibition of Yak1 activity.
Turning to `COc1ccc2c(c1)[nH]c1c(C)nccc12` [harmine], the concentration-dependent inhibition is 1-ECBC and harmine inhibit Yak1 activity in a concentration-dependent manner.
